Assay results as given in article PMC5459853, “Cathepsin S inhibition combines control of systemic and peripheral pathomechanisms of autoimmune tissue injury” (Scientific Reports, 2017).

Assays:
Type in all cases: biochemical
Human Cat-L = Human Cat-L (Homo sapiens, UniProt P07711); experiment: Enzymatic isoform-selectivity assay, Cat-L
Protocol: (§1) RO5459072 was provided by F. Hoffmann-La Roche, Ltd., Basel, Switzerland. It is a competitive inhibitor of the active site of Cat-S and its nitrile function allows covalent reversible inhibition of Cat-S. The synthesis of RO5459072 has been described in WO 2010121918 and WO 2013068434. Recombinant cathepsins were produced in-house or were purchased from commercial vendors. Initial enzymatic assays to determine isoform-selectivity in vitro were performed as previously described, [23]. […] For this the Cat-S-dependent hydrolysis of the fluorogenic substrate Z-Phe-Arg-AMC (Sigma Aldrich) was followed at various inhibitor concentrations. The active fraction of Cat-S was detemined as 70% with a HPLC assay measuring modification of Cat-S with the covalent inhibitor LHVS. The buffer (100 mM potassium phosphate, 50 mM NaCl, 5 mM EDTA, 5 mM TCEP, pH 6) was thoroughly degassed prior to perfoming measurements to prevent oxidation of the catalytic cystein residue by dissolved oxygen. For the Ki-determination the substrate was employed at 10 µM = KM. All kinetic measurements were performad on a SFM-3000 stopped-flow instrument (Bio-Logic Science Instruments) and data were analyzed with GraphPad Prism v5.

Human Cat-F = molecular target: T1, Human Cat-F (Homo sapiens, UniProt Q9UBX1); experiment: Enzymatic isoform-selectivity assay, Cat-F
T1 sequence (Q9UBX1 271-484): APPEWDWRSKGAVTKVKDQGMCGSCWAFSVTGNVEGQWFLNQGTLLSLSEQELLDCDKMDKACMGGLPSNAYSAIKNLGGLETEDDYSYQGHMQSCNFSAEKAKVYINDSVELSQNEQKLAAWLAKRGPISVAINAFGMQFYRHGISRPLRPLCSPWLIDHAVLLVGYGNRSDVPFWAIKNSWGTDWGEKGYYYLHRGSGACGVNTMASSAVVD
Protocol: as §1

Human Cat-S = Human Cat-S (Homo sapiens, UniProt P25774); experiment: Tight-binding kinetic analysis, Z-Phe-Arg-AMC hydrolysis, Morrison equation; settings: 10 µM Z-Phe-Arg-AMC (= KM), 10 nM Cat-S, pH 6
Sequence of Human Cat-S (P25774 115-331): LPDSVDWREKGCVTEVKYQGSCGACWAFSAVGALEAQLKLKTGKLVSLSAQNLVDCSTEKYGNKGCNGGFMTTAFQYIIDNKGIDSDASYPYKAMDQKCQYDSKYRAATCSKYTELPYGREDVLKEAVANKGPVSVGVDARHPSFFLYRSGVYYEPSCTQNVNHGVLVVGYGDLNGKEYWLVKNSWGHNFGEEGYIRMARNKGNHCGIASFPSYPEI
Protocol: as §1, with “The buffer (100 mM potassium phosphate, 50 mM NaCl, 5 mM EDTA, 5 mM TCEP, pH 6) was thoroughly degassed prior to perfoming measurements to prevent oxidation of the catalytic cystein residue by dissolved oxygen. For the Ki-determination the substrate was employed at 10 µM = KM.” left out, “v5. […]” for “v5.”
active Cat-S converged to [E]0 = 6.9 nM). […] (E) Pharmacodynamics of R05459072 was determined in C57Bl6 mice with increasing amounts of compound as single dose. […]
Supplementary figure 3. […] Plasma levels of IgG1 (A), IgG2a (B), and IgG2b (C) were determined by ELISA at different time points from the initiation (week 11) to the end of treatment (week 19). Data are expressed as means ± SEM (n=8 to 10 in […]

Sequence of Human Cat-L (P07711 114-333): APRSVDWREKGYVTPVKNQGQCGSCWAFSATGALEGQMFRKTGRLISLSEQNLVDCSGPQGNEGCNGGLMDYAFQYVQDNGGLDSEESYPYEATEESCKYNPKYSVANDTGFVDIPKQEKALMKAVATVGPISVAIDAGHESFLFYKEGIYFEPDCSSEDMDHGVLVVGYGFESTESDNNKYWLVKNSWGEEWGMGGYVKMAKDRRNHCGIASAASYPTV

## Cn1cc(-c2ccc(S(=O)(=O)[C@@H]3C[C@@H](C(=O)NC4(C#N)CC4)N(C(=O)C4(C(F)(F)F)CC4)C3)c(C(F)(F)F)c2)cn1 [RO5459072]
Human Cat-L
  IC50: > 1000 nM
  IC50, Human Cat-L: No sub-micro molar inhibition
Human Cat-F
  IC50: > 1000 nM
  IC50, Human Cat-F: No sub-micro molar inhibition
Human Cat-S
  Ki: 0.066 ± 0.025 nM
